# Source: ChEMBL document CHEMBL1147180, “Quantitative structure-selectivity relationship for M2 selectivity between M1 and M2 of piperidinyl piperidine derivatives as muscarinic antagonists” (Bioorg Med Chem Lett, 2007)
# What was measured:
# [1] = target: T1, Muscarinic acetylcholine receptor M1 (Homo sapiens, UniProt P11229); test: Binding affinity to muscarinic M1 receptor
# T1 sequence (P11229 whole entry): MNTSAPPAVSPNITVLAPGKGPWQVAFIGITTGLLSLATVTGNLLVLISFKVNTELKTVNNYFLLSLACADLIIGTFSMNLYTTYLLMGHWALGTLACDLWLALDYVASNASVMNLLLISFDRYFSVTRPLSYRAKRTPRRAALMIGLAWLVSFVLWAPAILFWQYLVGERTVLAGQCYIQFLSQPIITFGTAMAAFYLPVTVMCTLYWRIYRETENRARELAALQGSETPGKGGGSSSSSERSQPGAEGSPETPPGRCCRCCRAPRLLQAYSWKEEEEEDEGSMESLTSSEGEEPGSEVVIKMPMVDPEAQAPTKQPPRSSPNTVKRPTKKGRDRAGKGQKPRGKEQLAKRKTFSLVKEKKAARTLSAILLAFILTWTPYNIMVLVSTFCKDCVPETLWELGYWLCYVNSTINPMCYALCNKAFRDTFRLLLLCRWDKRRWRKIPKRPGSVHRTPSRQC
# [2] = target: Muscarinic acetylcholine receptors; M1 & M2 (Homo sapiens) (UniProt P11229+P08172); test: Selectivity for muscarinic M1 receptor over muscarinic M2 receptor; type: protein assay
SMILES,Ki [1],Ratio pKi [2]
C=C(c1ccc(S(=O)(=O)c2ccc(OC)cc2)cc1)C1CCN(C2CCN(C(=O)OC)CC2)CC1,60.4 nM,1.78
C=C(c1ccc(S(=O)(=O)c2ccc(OC)cc2)cc1)C1CCN(C2CCN(S(=O)(=O)CC)CC2)CC1,74.5 nM,2.21
C=C(c1ccc(S(=O)(=O)c2ccc(OC)cc2)cc1)C1CCN(C2CCN(S(=O)(=O)CCC)CC2)CC1,,1.95
C=C(c1ccc(S(=O)(=O)c2ccc(OC)cc2)cc1)C1CCN(C2CCN(C(=O)CCC)CC2)CC1,,2.04
C=C(c1ccc(S(=O)(=O)c2ccc(OC)cc2)cc1)C1CCN(C2CCN(S(=O)(=O)C(C)C)CC2)CC1,31.7 nM,2.3
C=C(c1ccc(S(=O)(=O)c2ccc(OC)cc2)cc1)C1CCN(C2CCN(C(=O)CC)CC2)CC1,60.8 nM,1.2
C=C(c1ccc(S(=O)(=O)c2ccc(OC)cc2)cc1)C1CCN(C2CCN(S(=O)(=O)c3ccccc3)CC2)CC1,37.4 nM,2.02
C=C(c1ccc(S(=O)(=O)c2ccc(OC)cc2)cc1)C1CCN(C2CCNCC2)CC1,,0.903
C=C(c1ccc(S(=O)(=O)c2ccc(OC)cc2)cc1)C1CCN(C2CCN(C(=O)OCC)CC2)CC1,,1.77
C=C(c1ccc(S(=O)(=O)c2ccc(OC)cc2)cc1)C1CCN(C2CCN(C(=O)OCCC)CC2)CC1,40.7 nM,1.84
C=C(c1ccc(S(=O)(=O)c2ccc(OC)cc2)cc1)C1CCN(C2CCN(S(=O)(=O)CCCC)CC2)CC1,57 nM,2.18
C=C(c1ccc(S(=O)(=O)c2ccc(OC)cc2)cc1)C1CCN(C2CCN(S(=O)(=O)Cc3ccccc3)CC2)CC1,33.3 nM,1.36
C=C(c1ccc(S(=O)(=O)c2ccc(OC)cc2)cc1)C1CCN(C2CCN(C(=O)OC(C)C)CC2)CC1,14.8 nM,1.56
C=C(c1ccc(S(=O)(=O)c2ccc(OC)cc2)cc1)C1CCN(C2CCN(C(=O)C(C)C)CC2)CC1,117 nM,1.72
C=C(c1ccc(S(=O)(=O)c2ccc(OC)cc2)cc1)C1CCN(C2CCN(C(=O)OCc3ccccc3)CC2)CC1,10.8 nM,1.38
C=C(c1ccc(S(=O)(=O)c2ccc(OC)cc2)cc1)C1CCN(C2CCN(C(=O)OCCCC)CC2)CC1,9.79 nM,1.45
C=C(c1ccc(S(=O)(=O)c2ccc(OC)cc2)cc1)C1CCN(C2CCN(C(=O)Cc3ccccc3)CC2)CC1,95.7 nM,1.5
C=C(c1ccc(S(=O)(=O)c2ccc(OC)cc2)cc1)C1CCN(C2CCN(C(=O)OCC(C)C)CC2)CC1,10.5 nM,1.54
C=C(c1ccc(S(=O)(=O)c2ccc(OC)cc2)cc1)C1CCN(C2CCN(C(=O)C3CC3)CC2)CC1,68.1 nM,2.42
